Results published in US20250281610A1, “P2RY2 ACTIVITY MODULATORS” (Deutsches Krebsforschungszentrum Stiftung des öffentlichen …, priority 2022, published 2025).

System: THP-1 cells
Assay: Viability of THP-1 cells in co-culture with CD33-specific CAR-T cells (flow cytometry-based cell counting)
Set-up: species or system human
Conditions: 5 μM AR-C
Procedure: FIG. 8. Effects of P2RY2 antagonist on T cells and cancer cells in T cell-cancer cell co-cultures. T cells transduced with CD33-specific CAR (CAR-T) were co-cultured with genetically edited THP-1 cells in the absence or presence of 5 μM AR-C 118925XX (AR-C) for 6-24 hours. Control cells: THP-1 cells transduced with non-targeting sgRNA and Cas9 (gNT); P2RY2 deficient cells: THP-1 cells transduced with P2RY2-targeting sgRNA and Cas9 (gP2RY2-3, gP2RY2-4); B7-H3 (CD276) deficient cells: THP-1 cells transduced with B7-H3-targeting sgRNA and Cas9 (gCD276-1); P2RY2 and B7-H3 double deficient cells: THP-1 cells transduced with P2RY2-targeting sgRNA, B7-H3-targeting sgRNA, and Cas9 (gCD276-1 gP2RY2-3 DKO, gCD276-1 gP2RY2-4 DKO); P2RY2 overexpression cells: THP-1 cells transduced with the open reading frame of P2RY2 (P2RY2-OE); B7-H3 overexpression cells: THP-1 cells transduced with the open reading frame of CD276 (CD276-OE). […]
FIG. 9. […] Control cells THP-1 cells transduced with non-targeting sgRNA and Cas9 (Ctrl.); P2RY2 overexpression cells: THP-1 cells transduced with the open reading frame of P2RY2 (P2RY2-OE). […]
The open reading frames of transcripts of P2RY2(ENST00000393597.7) or CD276(ENST00000318443.10), were ordered as a codon optimized gBlock Gene Fragment (Integrated DNA Technologies or Twist Bioscience) and cloned into a lentiviral vector containing a blasticidin selection cassette. […]
MART1-specific CD8+ T cells and MART1 epitope-expressing cancer cells were mixed at a ratio of 1:16 to 1:4. […] T cell activation was assessed by surface staining with anti-CD137-BV421 (4-1BB, Biolegend), anti-CD69-APC/Fire™ 750 (FN50, Biolegend), anti-CD25-AF700 (BC96, Biolegend) antibodies and intracellular staining with anti-IL-2-PE/Cy7 (MQ1-17H12, Biolegend), anti-IFN-7-BV421 (4S.B3, Biolegend), anti-TNF-α-BV785 (MAb11, Biolegend) antibodies, followed by flow cytometry analysis. […] The viability of cancer cells that grow in suspension including THP-1 cells was assessed by flow cytometry-based absolute cell counting using AccuCount beads (Spherotech). […]

## Cc1ccc2c(c1)C=Cc1cc(C)ccc1C2c1cn(Cc2ccc(C(=O)Nc3nn[nH]n3)o2)c(=O)[nH]c1=S [AR-C 118925XX]
6-24 hours, co-culture with CD33-specific CAR-T cells (FIG. 8)
  viability of P2RY2 proficient THP-1 cells: reduced
P2RY2 deficient THP-1 cells, CAR-T cell-THP-1 cell coculture (FIG. 8)
  viability of tumor cells upon P2RY2 deletion: does not influence
